{
  "source": "patent US10149838B2",
  "about": "“Small molecule securinine and norsecurinine analogs and their use in inhibiting myeloperoxidase” (MiRx Pharmaceuticals, LLC, priority 2013, dated 2018)",
  "key": {"MPO [1]": {"molecular_target": "T1, MPO (Homo sapiens, UniProt P05164)", "T1 sequence (P05164 49-745)": "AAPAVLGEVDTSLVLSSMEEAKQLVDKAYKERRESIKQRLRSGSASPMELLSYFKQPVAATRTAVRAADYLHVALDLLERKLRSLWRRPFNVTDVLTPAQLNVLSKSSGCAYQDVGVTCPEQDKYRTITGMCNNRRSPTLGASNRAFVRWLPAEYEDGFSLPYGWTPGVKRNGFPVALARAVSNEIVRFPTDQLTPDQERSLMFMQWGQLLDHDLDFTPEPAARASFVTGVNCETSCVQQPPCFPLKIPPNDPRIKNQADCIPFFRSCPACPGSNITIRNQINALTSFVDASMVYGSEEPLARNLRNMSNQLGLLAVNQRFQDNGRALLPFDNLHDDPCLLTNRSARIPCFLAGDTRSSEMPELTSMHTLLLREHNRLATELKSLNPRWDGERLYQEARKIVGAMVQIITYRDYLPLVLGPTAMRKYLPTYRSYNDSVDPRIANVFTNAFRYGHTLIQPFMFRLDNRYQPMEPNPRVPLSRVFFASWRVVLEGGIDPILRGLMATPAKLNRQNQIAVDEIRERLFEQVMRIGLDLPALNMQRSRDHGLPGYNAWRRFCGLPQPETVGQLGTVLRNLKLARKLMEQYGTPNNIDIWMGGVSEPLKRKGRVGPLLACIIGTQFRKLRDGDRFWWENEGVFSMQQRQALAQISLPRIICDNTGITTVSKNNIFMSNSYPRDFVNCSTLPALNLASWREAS", "assay": "MALDI-TOF analysis of heme and heme/compound conjugate in presence of H2O2", "assay_type": "binding", "set-up": "purchased Cayman Chemical 700170", "procedure": "(§1) Only MPO (red) and H2O2 promoted a shift in the Soret peak, formation of a new band at 630 nm (blue).\nTo determine the binding motif/active site of MPO and the compound of interest, a computational docking analysis using a 2.5 A crystal structure (PDB id 3ZSO) was performed. The heme ‘m’ in myeloperoxidase contains two ester bonds at the heme 1 and 5-methyls. In addition, a unique sulfonium ion linkage was observed. […] An inhibitory action of the myeloperoxidase is predicted when such covalent links are formed. Especially docking position of 184B unique and have visible effect on the Hisitidine 336 coordinated iron (FIG. 6E). These docking results explain the observed effects of 184B on the soret peak (˜433). Further MALDI-TOF analysis of heme (un conjugated) and heme/184B conjugated (in presence of H2O2) complexes are liberated from protein and analyzed ions with an ˜m/z>1040, which would be the mass of conjugated heme and 184B compare to unconjugated control only heme (m/z˜694) (FIG. 6F)."}, "in vitro": {"assay": "in vitro", "assay_type": "in vitro ADME", "conditions": "human, microsomes", "description": "(§2) The securinine analog MPO inhibitors have favorable in vitro and in vivo toxicity profiles."}, "MPO [2]": {"molecular_target": "T1, MPO", "assay": "UV/visible heme absorption spectra of MPO with compound/H2O2", "assay_type": "binding", "set-up": "purchased Cayman Chemical 700170", "procedure": "as §1\nIt was next set about to investigate the molecular target of the analogs (FIG. 6A). Cultured HL60 cells were treated with either Biotin/Biotin-INVMG1 (securinine) (10 μM) for 2 hr and pull-down experiments using streptavidin magnetic beads were used to pulldown bound molecules, followed by SDS-PAGE analysis (FIG. 6B). […] This 80 kDa protein band was excised, digested with trypsin, and the tryptic digests then analyzed using Mass Spectroscopy. […] The proteins bound to streptavidin beads were next separated using SDS-PAGE and incubated then with anti-human MPO antibody. […] To further confirm the binding of INVMG1 to MPO, the MPO enzyme was incubated with and without INVMG184B/H2O2, and analyzed absorption maxima using UV/visible."}, "thyroid peroxidase": {"molecular_target": "T2, thyroid peroxidase (Homo sapiens, UniProt P07202)", "T2 sequence (P07202 19-933)": "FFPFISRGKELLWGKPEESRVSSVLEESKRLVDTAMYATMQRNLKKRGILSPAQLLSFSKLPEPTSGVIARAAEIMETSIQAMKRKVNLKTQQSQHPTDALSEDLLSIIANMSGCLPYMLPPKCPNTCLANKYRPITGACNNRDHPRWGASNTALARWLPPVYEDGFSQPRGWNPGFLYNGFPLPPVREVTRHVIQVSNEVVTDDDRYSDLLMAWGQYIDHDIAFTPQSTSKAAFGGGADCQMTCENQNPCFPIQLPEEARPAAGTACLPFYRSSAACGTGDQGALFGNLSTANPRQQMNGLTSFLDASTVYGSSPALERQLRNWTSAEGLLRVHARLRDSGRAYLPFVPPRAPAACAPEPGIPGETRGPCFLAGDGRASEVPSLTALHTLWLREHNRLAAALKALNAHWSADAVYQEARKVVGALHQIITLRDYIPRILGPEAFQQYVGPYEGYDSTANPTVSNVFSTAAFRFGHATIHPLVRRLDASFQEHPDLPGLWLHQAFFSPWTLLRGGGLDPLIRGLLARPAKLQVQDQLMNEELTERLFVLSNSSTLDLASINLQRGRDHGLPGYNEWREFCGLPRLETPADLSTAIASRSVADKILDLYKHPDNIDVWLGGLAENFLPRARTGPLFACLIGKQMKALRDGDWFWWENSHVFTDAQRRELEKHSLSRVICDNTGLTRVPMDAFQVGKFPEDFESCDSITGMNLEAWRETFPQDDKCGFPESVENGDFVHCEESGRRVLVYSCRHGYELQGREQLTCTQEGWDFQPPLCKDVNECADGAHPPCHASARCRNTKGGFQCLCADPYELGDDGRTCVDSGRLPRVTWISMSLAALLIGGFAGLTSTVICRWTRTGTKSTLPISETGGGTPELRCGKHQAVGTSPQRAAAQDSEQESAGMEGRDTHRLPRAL", "assay": "Oxidation of ascorbate by thyroid peroxidase and iodide (iodination activity)", "assay_type": "biochemical", "conditions": "10 μM, iodide", "description": "(§3) All Results are representative of duplicate experiments\n(§4) To determine whether these analogues are selective for MPO, rather than being a general peroxidase inhibitor, thyroid peroxidase and lactoperoxidase were selected for oxidase evaluation. The effect of MA20 on the halogenation activities of MPO and thyroid peroxidase were compared by following the oxidation of ascorbate in the presence of chloride or iodide."}, "MPO [3]": {"molecular_target": "T1, MPO", "assay": "Chlorination assay with purified MPO (HOCl formation, APF fluorescence)", "assay_type": "biochemical", "set-up": "purchased Cayman Chemical 700170", "procedure": "as §3\nMPO's catalyzed enzymatic reaction consists of multiple stages (FIG. 3). Chlorination occurs when Complex-I produces hypochlorous acid (HOCl) in the presence of a chloride ion. […] Analogue MA20:\n(§5) To determine the mechanism of this inhibition, the MPO enzyme was incubated with MA20 in the presence or absence of H2O2 for a set time and determined the reduction in chlorination activity of the enzyme. Residual activity was measured by diluting the reaction mixture by 150 fold. Incubation with either MA20 or H2O2 had minimal MPO inhibitory activity (approximately a 25-30% reduction in chlorination activity, FIG. 7E)."}, "MPO [4]": {"molecular_target": "T1, MPO", "assay": "Oxidation of ascorbate by MPO, H2O2 and chloride", "assay_type": "biochemical", "set-up": "purchased Cayman Chemical 700170", "conditions": "1.0 μM, chloride", "description": "as §3, §4"}, "human neutrophils": {"system": "human neutrophils", "assay": "HOCl production by PMA-stimulated human neutrophils", "assay_type": "cell-based", "conditions": "0.5 μM MA20, PMA 110 ng/ml 30 min", "procedure": "as §3\nThe reaction was stopped by 251 μg/ml of catalase and 0.5 μM of MA20, and chlorination activity was measured. […] This effect is strikingly similar to MA20's inhibitory effect on purified MPO (FIG. 7C). […] As such, they prevent the production of HOCl without concomitant release of free radicals."}, "MPO [5]": {"molecular_target": "T1, MPO", "assay": "Residual chlorination activity of MPO after incubation with or without H2O2, 150 fold dilution", "assay_type": "biochemical", "set-up": "purchased Cayman Chemical 700170", "conditions": "FIG. 7E", "procedure": "as §3, §5"}, "HEK293": {"system": "HEK293", "assay_type": "cell-based", "description": "as §2"}, "[6]": {"system": "mouse embryonic fibroblast (MEF)", "assay_type": "cell-based", "description": "as §2"}, "Skin fibroblast (BJ1)": {"system": "Skin fibroblast (BJ1)", "assay_type": "cell-based", "description": "as §2"}},
  "data": [
    {"smiles": "O=C1C=C2CC(S(=O)(=O)c3ccccc3)[C@@H]3C[C@@]2(O1)[C@H]1CCCCN31", "note": "(some centres unmarked) [INVS-MG-184B]", "values": [
      {"measurement": "nature of interaction with MPO (heme conjugate)", "setting": "MPO [1]", "value": "irreversible"}
    ]},
    {"smiles": "O=C1C=C2C(S(=O)(=O)c3ccccc3)C[C@@H]3C[C@@]2(O1)C1CCCCN13", "note": "(some centres unmarked) [MA20]", "values": [
      {"measurement": "half-life", "setting": "in vitro", "value": "~80", "unit": "min"},
      {"measurement": "binding with the heme prosthetic group (Soret ~433 nm, peak ~630 nm)", "setting": "MPO [2]", "value": "direct binding"},
      {"measurement": "effect on the iodination activity of thyroid peroxidase", "setting": "thyroid peroxidase", "value": "negligible"},
      {"measurement": "MPO inhibition activity assessed by chlorination activity", "setting": "MPO [3]; FIG. 7B-C", "value": "highest MPO inhibition activity"},
      {"measurement": "inhibition potency (chlorination) versus chloride ion concentration", "setting": "MPO [3]; FIG. 7D", "value": "decreased with increasing concentrations of the chloride ion"},
      {"measurement": "mechanism of MPO inhibition", "setting": "MPO [3]; preliminary data", "value": "suicidal substrate"},
      {"measurement": "oxidation of ascorbate by MPO", "setting": "MPO [4]", "value": "completely blocked"},
      {"measurement": "PMA-induced HOCl production by neutrophils", "setting": "human neutrophils", "value": "significantly inhibited"},
      {"measurement": "MPO activity after addition of compound and H2O2", "setting": "MPO [5]; MA20 and H2O2", "value": "completely inhibited"},
      {"measurement": "reduction in chlorination activity", "setting": "MPO [5]; incubation with MA20 alone, without H2O2", "value": "25-30%"},
      {"measurement": "toxicity (cell survival)", "setting": "HEK293", "value": "significantly lower level of toxicity"},
      {"measurement": "toxicity (cell survival)", "setting": "[6]", "value": "significantly lower level of toxicity"},
      {"measurement": "toxicity (cell survival)", "setting": "Skin fibroblast (BJ1)", "value": "significantly lower level of toxicity"}
    ]}
  ]
}
